Laboratory results from patent publication US8258182B2, “Substituted 1,3-diphenylpropane derivatives, preparations and uses thereof” (Genfit, priority 2006, dated 2012).

Key:
Assay type in all cases: in vivo, mouse
ApoE2/E2 mice = test: Plasma lipids in dyslipidemic ApoE2/E2 mice after per os treatment; conditions: 3 and 10 mpk per os, 14 days, vs control animals (FIG. 2-3)
Description: The dyslipidemic E2/E2 mouse's rates of total cholesterol, of triglycerides, and plasma free fatty acids are measured after 8 or 14 days of a per os treatment with the compounds according to the invention.
The hypolipidemic properties of the compounds according to the invention are evaluated in vivo by assaying plasma lipids and the analysis of the PPARs target genes expression in the liver after a treatment treating of the dyslipidemic E2/E2 mice with the compounds according to the invention.
The murine model used is the ApoE2/E2 mouse, a transgenic mouse having the human apolipoprotein E isoform E2 (Sullivan P M et al., 1998). In human, this apolipoprotein, a constituent of low and very low density lipoproteins (LDL-VLDL), is present in three isoforms E2, E3, and E4. The E2 form presents a mutation affecting the amino acid in position 158, which considerably weakens the affinity of this protein for LDL receptors. Accordingly, the VLDL clearance is nearly non-existent. An accumulation of low-density lipoproteins then occurs along with a mixed hyperlipidemia known as type III (elevated cholesterol and triglycerides).
The ApoE2/E2 transgenic mice were kept on a 12 hour/12 hour light/dark cycle at a constant temperature of 20±3° C. After a one week acclimatization period, the mice were weighed and divided into groups of 6 animals selected so as to render uniform the distribution of their body weights and plasma lipid rates, determined before the experiment. The tested compounds were suspended in carboxymethylcellulose (Sigma C4888) and administered by intra-gastric tube feeding once a day for 8 days (for compound 1) or 14 days (for compound 8) with the chosen doses. […] Taking of food and weight gain are recorded throughout the experiment. […]
Plasma lipid concentrations (total cholesterol and triglycerides) are measured by enzymatic doses (bioMérieux-Lyon-France) according to the provider's recommendations.
Plasma cholesterol and triglycerides rates are measured after 8 or 14 days of a per os treatment with the compounds according to the invention. […]

[1] = test system: PPARs target genes (PDK4, ACO, UCP2) in hepatic and skeletal muscle tissue; test: Expression of PPAR target genes in liver and skeletal muscle of db/db mice (quantitative RT-PCR); conditions: 50 mpk
Description: The effectiveness of the compounds according to the invention is also evaluated by measuring, in hepatic and muscular (skeletal) tissue, the expression of the genes involve in lipid and/or carbohydrate metabolism and in energy dissipation. Each level of gene expression is normalized in regarding the expression level of reference gene 36B4 in the hepatic tissue, or regarding the expression level of reference gene 18S in the gastrocnemius skeletal muscle. The induction factor, i.e. the ratio between the relative signal (induced by the compound according to the invention) and the average of relative values relating to the control group, is then calculated. The higher the induction factor is, the more the compound promotes gene expression. The final result is expressed as an average of the induction values obtained with each experimental group.
Female db/db mice were kept on a 12 hour/12 hour light/dark cycle at a constant temperature of 20±3° C. After a one week acclimatization period, the mice were weighed and divided into groups of 8 animals selected such as the distribution of body weight and of plasma lipid rate, determined before the experiment, was uniform. […] Taking of food and weight gain are recorded throughout the experiment. […]
1 μg of total RNA (quantified by spectrophotometry) was then reverse-transcripted into complementary DNA by means of a 1 hour reaction at 37° C. in a total volume of 20 μl containing a 1× buffer (Sigma), 1.5 mM of DTT, 0.18 mM of dNTPs (Promega), 200 ng of pdN6 (Amersham), 30U of RNase inhibitor (Sigma), and 1 μl of MMLV-RT (Sigma).
The PCR quantitative experiments were carried out using the MyiQ Single-Color Real-Time PCR Detection System (Biorad, Marnes-la-Coquette, France) and were performed using the iQ SYBR Green Supermix kit according to the provider's recommendations, in 96-well plates, with 5 μl of diluted reverse transcription solutions and at a hybridization temperature of 55° C. […]
The fluorescent quantity emitted is directly proportional to the amount of cDNA present at the beginning of the reaction and amplified during the PCR. […]

db/db mice = test: Plasma HDL-cholesterol, triglycerides and free fatty acids in db/db mice after per os treatment; conditions: 50 mpk per os, 28 days
Description: The effect of the compounds according to the invention is evaluated in vivo on the db/db mice by measuring the levels of HDL-cholesterol, triglycerides, and plasma free fatty acids after 28 days of a per os treatment with the compounds according to the invention.
The hypolipidemic properties of the compounds according to the invention are evaluated in vivo by measuring the plasma levels of plasmatic lipids and by analyzing the genetic expression PPARs target genes, after treating the dyslipidemic db/db mice with the compounds according to the invention, administered by the oral route.
Female db/db mice were kept on a 12 hour/12 hour light/dark cycle at a constant temperature of 20±3° C. After a one week acclimatization period, the mice were weighed and divided into groups of 8 animals selected such as the distribution of body weight and of plasma lipid rate, determined before the experiment, was uniform. The tested compounds were suspended in carboxymethylcellulose (Sigma C4888) and administered to the animals by intra-gastric gavage, once a day for 28 days at the chosen doses. The animals had free access to food and water (standard diet). Taking of food and weight gain are recorded throughout the experiment. At the end of the experiment, after a 4 hour fast, the animals were anesthetized and a blood sample was taken on anticoagulant (EDTA). Then the mice were weighed and euthanized. The plasma was separated by centrifugation at 3000 rotations/minute for 20 minutes. The samples were kept at +4° C. The hepatic tissue and skeletal muscle samples were taken and frozen immediately in liquid nitrogen then conserved at −80° C. for later analysis.
Plasma triglycerides concentrations are measured by enzymatic assays (bioMérieux-Lyon-France) according to the provider's recommendations.
Low-density lipoproteins (VLDL and LDL) are precipitated by phosphotungstate. The precipitate is eliminated by centrifugation. HDL-cholesterol present in the supernatant is measured by enzymatic assay (bioMérieux-Lyon-France) in accordance with the provider's recommendations.

Compound: CCCOc1ccc(C(=O)CCc2cc(C)c(OC(C)(C)C(=O)O)c(C)c2)cc1 [Compound 8, 2-[2,6-dimethyl-4-[3-[4-(propyloxy)phenyl]-3-oxo-propyl]phenoxyl]-2-methylpropanoic acid]
- plasma total cholesterol rates (ApoE2/E2 mice): very significantly decreased
- hepatic expression of the genes coding for PDK4 ([1]; 28 days (FIG. 3-4)): significant increase
- hepatic expression of the genes coding for ACO ([1]; 28 days (FIG. 3-5)): significant increase
- expression of the gene coding for UCP2 in the skeletal muscle ([1]; 28 days (FIG. 3-6)): increase
- plasma HDL-cholesterol rates (db/db mice; vs control animals (FIG. 3-1)): significantly increased
- circulating triglycerides rates (db/db mice; vs control animals (FIG. 3-2)): very significantly decreased
- circulating free fatty acids rates (db/db mice; vs control animals (FIG. 3-3)): very significantly decreased
